Test results from the supplement of paper PMC10307832.

Columns and labels:
Test in all cases: relative viability (nuclei count vs DMSO), 5 days (fraction); higher = more cells survive
ABC-1 = system: ABC-1
Method in brief: (§1)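 Relative viability divides the nuclei count in treated wells by that in vehicle wells. Lung cancer cell lines were seeded in 1536-well plates, dosed by pin tool the next day, and fixed and stained after 5 days in one step with final 0.05% Triton X-100, 1% formaldehyde and 1 ug/ml Hoechst. Dosing was a single drug or a fixed anchor-drug dose plus five library-drug doses (not always all listed) in √10 steps, and values are medians of duplicate plates imaged at 4×.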

COR-L23 = system: COR-L23
Method in brief: as §1

EPLC-272H = system: EPLC-272H
Method in brief: as §1

HARA = system: HARA
Method in brief: as §1

HCC-15 = system: HCC-15
Method in brief: as §1

HCC-78 = system: HCC-78
Method in brief: as §1

LC-2-ad = system: LC-2-ad
Method in brief: as §1

LU99A = system: LU99A
Method in brief: as §1

NCI-H1651 = system: NCI-H1651
Method in brief: as §1

NCI-H1915 = system: NCI-H1915
Method in brief: as §1

NCI-H1993 = system: NCI-H1993
Method in brief: as §1

NCI-H2009 = system: NCI-H2009
Method in brief: as §1

NCI-H2085 = system: NCI-H2085
Method in brief: as §1

NCI-H2126 = system: NCI-H2126
Method in brief: as §1

NCI-H2342 = system: NCI-H2342
Method in brief: as §1

NCI-H2347 = system: NCI-H2347
Method in brief: as §1

NCI-H358 = system: NCI-H358
Method in brief: as §1

NCI-H460 = system: NCI-H460
Method in brief: as §1

NCI-H522 = system: NCI-H522
Method in brief: as §1

NCI-H650 = system: NCI-H650
Method in brief: as §1

NCI-H838 = system: NCI-H838
Method in brief: as §1

PC-14 = system: PC-14
Method in brief: as §1

SW 1573 = system: SW 1573
Method in brief: as §1

UMC-11 = system: UMC-11
Method in brief: as §1

Clc1ccc(Nc2nnc(Cc3ccncc3)c3ccccc23)cc1 [Vatalanib] + O=C(c1cc(Cc2n[nH]c(=O)c3ccccc23)ccc1F)N1CCN(C(=O)C2CC2)CC1 [Olaparib] (partner 8 µM)
relative viability (ABC-1; first compound 0.04 µM): 0.642
relative viability (ABC-1; first compound 0.1265 µM): 0.689
relative viability (ABC-1; first compound 0.4 µM): 0.421
relative viability (ABC-1; first compound 4 µM): 0.869
relative viability (COR-L23; first compound 0.04 µM): 0.363
relative viability (COR-L23; first compound 0.1265 µM): 0.356
relative viability (COR-L23; first compound 0.4 µM): 0.402
relative viability (COR-L23; first compound 1.265 µM): 0.337
relative viability (COR-L23; first compound 4 µM): 0.345
relative viability (EPLC-272H; first compound 0.04 µM): 0.944
relative viability (EPLC-272H; first compound 0.1265 µM): 0.79
relative viability (EPLC-272H; first compound 0.4 µM): 1.04
relative viability (EPLC-272H; first compound 1.265 µM): 0.688
relative viability (EPLC-272H; first compound 4 µM): 0.86
relative viability (HARA; first compound 0.04 µM): 0.713
relative viability (HARA; first compound 0.1265 µM): 0.725
relative viability (HARA; first compound 0.4 µM): 0.875
relative viability (HARA; first compound 1.265 µM): 0.97
relative viability (HARA; first compound 4 µM): 0.823
relative viability (HCC-15; first compound 0.04 µM): 0.795
relative viability (HCC-15; first compound 0.1265 µM): 0.723
relative viability (HCC-15; first compound 0.4 µM): 0.781
relative viability (HCC-15; first compound 1.265 µM): 0.684
relative viability (HCC-15; first compound 4 µM): 0.696
relative viability (HCC-78; first compound 0.04 µM): 0.899
relative viability (HCC-78; first compound 0.1265 µM): 0.865
relative viability (HCC-78; first compound 0.4 µM): 0.761
relative viability (HCC-78; first compound 1.265 µM): 0.823
relative viability (HCC-78; first compound 4 µM): 0.775
relative viability (LC-2-ad; first compound 0.04 µM): 0.661
relative viability (LC-2-ad; first compound 0.1265 µM): 0.67
relative viability (LC-2-ad; first compound 0.4 µM): 0.686
relative viability (LC-2-ad; first compound 1.265 µM): 0.694
relative viability (LC-2-ad; first compound 4 µM): 0.69
relative viability (LU99A; first compound 0.04 µM): 0.252
relative viability (LU99A; first compound 0.1265 µM): 0.281
relative viability (LU99A; first compound 0.4 µM): 0.237
relative viability (LU99A; first compound 1.265 µM): 0.23
relative viability (LU99A; first compound 4 µM): 0.309
relative viability (NCI-H1651; first compound 0.04 µM): 0.19
relative viability (NCI-H1651; first compound 0.1265 µM): 0.184
relative viability (NCI-H1651; first compound 0.4 µM): 0.195
relative viability (NCI-H1651; first compound 1.265 µM): 0.202
relative viability (NCI-H1651; first compound 4 µM): 0.179
relative viability (NCI-H1915; first compound 0.04 µM): 0.258
relative viability (NCI-H1915; first compound 0.1265 µM): 0.265
relative viability (NCI-H1915; first compound 0.4 µM): 0.275
relative viability (NCI-H1915; first compound 1.265 µM): 0.233
relative viability (NCI-H1915; first compound 4 µM): 0.253
relative viability (NCI-H1993; first compound 0.04 µM): 0.587
relative viability (NCI-H1993; first compound 0.1265 µM): 1.08
relative viability (NCI-H1993; first compound 0.4 µM): 0.879
relative viability (NCI-H1993; first compound 1.265 µM): 1.11
relative viability (NCI-H1993; first compound 4 µM): 1.01
relative viability (NCI-H2009; first compound 0.04 µM): 0.703
relative viability (NCI-H2009; first compound 0.1265 µM): 0.623
relative viability (NCI-H2009; first compound 0.4 µM): 0.675
relative viability (NCI-H2009; first compound 1.265 µM): 0.672
relative viability (NCI-H2009; first compound 4 µM): 0.594
relative viability (NCI-H2085; first compound 0.04 µM): 0.839
relative viability (NCI-H2085; first compound 0.1265 µM): 0.81
relative viability (NCI-H2085; first compound 0.4 µM): 0.812
relative viability (NCI-H2085; first compound 1.265 µM): 0.795
relative viability (NCI-H2085; first compound 4 µM): 0.727
relative viability (NCI-H2126; first compound 0.04 µM): 0.888
relative viability (NCI-H2126; first compound 0.1265 µM): 0.926
relative viability (NCI-H2126; first compound 0.4 µM): 0.938
relative viability (NCI-H2126; first compound 1.265 µM): 0.85
relative viability (NCI-H2126; first compound 4 µM): 0.966
relative viability (NCI-H2342; first compound 0.04 µM): 0.397
relative viability (NCI-H2342; first compound 0.1265 µM): 0.452
relative viability (NCI-H2342; first compound 0.4 µM): 0.461
relative viability (NCI-H2342; first compound 1.265 µM): 0.365
relative viability (NCI-H2342; first compound 4 µM): 0.471
relative viability (NCI-H2347; first compound 0.04 µM): 0.647
relative viability (NCI-H2347; first compound 0.1265 µM): 0.538
relative viability (NCI-H2347; first compound 0.4 µM): 0.643
relative viability (NCI-H2347; first compound 1.265 µM): 0.623
relative viability (NCI-H2347; first compound 4 µM): 0.597
relative viability (NCI-H358; first compound 0.04 µM): 0.566
relative viability (NCI-H358; first compound 0.1265 µM): 0.548
relative viability (NCI-H358; first compound 0.4 µM): 0.639
relative viability (NCI-H358; first compound 1.265 µM): 0.769
relative viability (NCI-H358; first compound 4 µM): 0.562
relative viability (NCI-H460; first compound 0.04 µM): 0.4
relative viability (NCI-H460; first compound 0.1265 µM): 0.44
relative viability (NCI-H460; first compound 1.265 µM): 0.494
relative viability (NCI-H460; first compound 4 µM): 0.377
relative viability (NCI-H522; first compound 0.04 µM): 0.756
relative viability (NCI-H522; first compound 0.1265 µM): 0.705
relative viability (NCI-H522; first compound 0.4 µM): 0.746
relative viability (NCI-H522; first compound 1.265 µM): 0.565
relative viability (NCI-H522; first compound 4 µM): 0.774
relative viability (NCI-H650; first compound 0.04 µM): 0.377
relative viability (NCI-H650; first compound 0.1265 µM): 0.378
relative viability (NCI-H650; first compound 0.4 µM): 0.414
relative viability (NCI-H650; first compound 1.265 µM): 0.394
relative viability (NCI-H650; first compound 4 µM): 0.361
relative viability (NCI-H838; first compound 0.04 µM): 0.774
relative viability (NCI-H838; first compound 0.1265 µM): 0.741
relative viability (NCI-H838; first compound 0.4 µM): 0.824
relative viability (NCI-H838; first compound 1.265 µM): 0.722
relative viability (NCI-H838; first compound 4 µM): 0.702
relative viability (PC-14; first compound 0.04 µM): 0.192
relative viability (PC-14; first compound 0.1265 µM): 0.195
relative viability (PC-14; first compound 0.4 µM): 0.295
relative viability (PC-14; first compound 1.265 µM): 0.276
relative viability (PC-14; first compound 4 µM): 0.309
relative viability (SW 1573; first compound 0.04 µM): 0.466
relative viability (SW 1573; first compound 0.1265 µM): 0.521
relative viability (SW 1573; first compound 0.4 µM): 0.506
relative viability (SW 1573; first compound 1.265 µM): 0.55
relative viability (SW 1573; first compound 4 µM): 0.355
relative viability (UMC-11; first compound 0.04 µM): 0.331
relative viability (UMC-11; first compound 0.1265 µM): 0.39
relative viability (UMC-11; first compound 0.4 µM): 0.318
relative viability (UMC-11; first compound 1.265 µM): 0.468
relative viability (UMC-11; first compound 4 µM): 0.297
